Data on one compound can be found in patent publication US12240870B2, “Sequencing method for CAR T cell therapy” (Purdue Research Foundation, priority 2018, dated 2025).

The structures appear in SMILES notation. “Also recorded” adds a separate entry of the source.

The subject of this data set is HOS-FRα xenografts. As to the kind of experiment: HOS-FRα osteosarcoma subcutaneous xenograft, E2 CAR-T cells plus EC17. The data set is classed as in vivo, NSG mice. The text has this: Panel A: Schematic diagram to show dose scheduling of CAR-T cells (˜6 million, day 0) plus EC17 in NSG mice with 3-day-old subcutaneous HOS-FRα xenografts (n=5). Starting 3 days after CAR-T cell injection (6 days after tumor implant), 3 cycles of EC17 M/Th/M […], i.e. on days 3/6/10, 17/20/24, and 31/34/38. Panel B: Measurements of tumor volumes and change in body weights. Due to tumor progression, five mice received CAR-T cells only (no EC17) were euthanized on days 23-31, and five EC17 treated mice were euthanized on days 33 (2 mice) and 47 (3 mice), respectively. Panel C: Flow cytometric analysis of CAR-T cells (human CD3ε+EGFRT+) PER 100 μL OF WHOLE BLOOD PLOTTED ON A LOGARITHMIC SCALE (LEFT) AND TUMOR-infiltrating CAR-T cells at the time of euthanasia (right).
HOS-FRα (i.e. HOS-143b-LV-FRα) is a subclone of HOS-143B (ATCC CRL-8303) stably transfected with human FRα. HOS-143B was originally derived from a […] with osteosarcoma. The tumor cells were grown in folate-deficient RPMI 1640 with 5% FBS at 37° C. in a 5% CO2 humidified atmosphere. For the in-vivo study, tumor cells were inoculated subcutaneously at 1×10^6 cells per animal.
EGFRt-sorted anti-FITC E2 scFv-CAR T cells were frozen in a T-cell freezing medium. Upon arrival, vials of frozen CAR-T cells were immediately stored at −80° C. The CAR-T cells were quickly thawed at 37° C., washed twice with PBS, and used for animal injection at 6 million viable EGFRt+ E2 CAR-T cells (CD4/CD8 at ˜1:1) per animal. A small aliquot was taken on the day infusion for flow cytometric analysis of E2-CAR T-cell phenotypes.
EC17 dosing solutions were prepared when dosing began by weighing appropriate amounts of each compound, reconstituting in PBS, pH 7.4, sterile filtering the drug solution through a 0.22 μm PVDF syringe filter, and freezing aliquots for each day of dosing at −20° C.
All EC17 doses were given towards the end of day (3-4 PM) to allow potential CRS (cytokine release syndrome) to develop overnight. On the following morning, animals were scored according to a CRS grading system (see below).
Tumor growth, body weight, and overall assessment: Tumor sizes were monitored 2-3 times/week and body weight measured 2-3 times/week. On the days immediately after any EC17 dose, body weight measurement was taken daily and attention was given to gross animal morphology and behavior.
Euthanasia: Euthanasia was performed when mice had lost ≥20% of their weight, when tumors reached ≥1500 mm^3. Euthanasia was also performed if mice lost a lot of weight in a short duration (e.g., due to severe head-tilt), or when they approached moribund conditions per CRS grading system. • EC17 intra-host dose escalation treatment (3 cycles). See FIG. 16. • Antitumor activity (N=5)
All animal care and use were performed according to NIH guidelines and in compliance with protocols approved by the Purdue University Animal Use and Care Committee. Female 4 to 5-week-old NOD/SCID gamma (NSG™) mice (stock number: 005557) were purchased from The Jackson Laboratory (Bar Harbor, ME). Unless specifically indicated, all animals were maintained on a FA-deficient diet (TestDiet, St. Louis, MO) upon arrival and throughout the study. To establish subcutaneous xenografts, MDA-MB-231 and HOS-FRα were implanted in the right flank region at 2.5×10^6 and 1×10^6 cells per animal, respectively. […] Subcutaneous tumors were measured 2-3 times per week with a caliper and calculated using the ellipsoidal formula (length×width^2)/2. […]

In the case of `Nc1nc2ncc(CNc3ccc(C(=O)N[C@@H](CCC(=O)NCCNC(=S)Nc4ccc(-c5c6ccc(=O)cc-6oc6cc(O)ccc56)c(C(=O)O)c4)C(=O)O)cc3)nc2c(=O)[nH]1` [EC17, FA-(γ)-ethylenediamine-FITC], the “tumor volume (antitumor activity)” value (6 million E2 CAR-T cells + EC17 5/100/1000 nmol/kg, M/Th/M (Cohort 2, FIG. 4)) is given as “significant tumor regression”. The “body weight loss or CRS” value (6 million E2 CAR-T cells + EC17 slow dose escalation M/Th/M (Cohort 2, FIG. 4)) is given as “without body weight loss or CRS; also recorded: No body weight loss or symptoms of cytokine release syndrome (CRS) were observed”. For the same compound, the “day of euthanasia due to tumor progression” value (five EC17 treated mice, EC17 M/Th/M dose escalation) was 33 (2 mice) and 47 (3 mice) days. The “CRS or body weight loss” value (~6 million E2-CAR-T cells + EC17 5/10/100, 5/30/300, 5/50/500 nmol/kg Cycles 1-3, M/Th/M (FIG. 14)) was “no CRS or body weight loss”. Further, under “~6 million E2-CAR-T cells + EC17 5/10/100, 5/30/300, 5/50/500 nmol/kg Cycles 1-3, M/Th/M, 6-day break (FIG. 14)”, the tumor growth result is given as “significant delay in tumor growth; also recorded: stopped responding to treatment in Cycle 3”.
